For the test, the system named is NCI-60 cell lines. It is filed as cell-based, human.
Regarding YNRSAGL, the “Cell Line with which the peptide (and its tripeptide motif) is associated” value (“Cell Line with which the peptide” below) is listed as “CCRF-CEM Leukemia”.

For YRALAGG, the “Cell Line the peptide is associated with (peptide recovered from phage library selection on this NCI-60 cell line)” value is on record as “MDA-MB-435-Breast”.

As to YRGSMVG, the “Cell Line (NCI-60 cell line the peptide is associated with)” value is reported as “COLO-205-Colon”.

As for YRGSSGK, the “Cell Line with which the peptide” value is reported as “RPMI-8226-Leukemia”.

In the case of YRVSSGS, the “Cell Line (NCI-60 cell line the peptide is associated with)” value is reported as “SNB-75 CNS”.

Take YSGRLVM: the “Cell Line (NCI-60 cell line the peptide is associated with)” value was “SNB-75 CNS”.

With YSGSSDF, the “Cell Line (NCI-60 cell line the peptide is associated with)” value is recorded as “COLO-205-Colon”.

For YSIMRVS, the “Cell Line (NCI-60 cell line the peptide is associated with)” value is reported as “SF-295 CNS”.

On to YSQRSSL, for which the “Cell Line with which the peptide” value is reported as “Hop-62-Lung”.

With YTGSSPS, the “Cell Line (NCI-60 cell line the peptide and its motif are associated with)” value is “SK-OV-3-3 Ovarian”.

On to YVGGRLR, for which the “Cell Line (NCI-60 cell line the peptide and its motif are associated with)” value is given as “OVCAR-5 Ovarian”.

In the case of YVGLVVS, the “Cell Line with which the peptide” value is given as “SR Leukemia”.

As for YVRIGRV, the “Cell Line (NCI-60 cell line the peptide is associated with)” value is on record as “HCT-15 Colon”.

In the case of YWFIGLG, the “Cell Line with which the peptide” value is “EKVX-Lung”.

Turning to YWGGSVP, the “Cell Line the peptide is associated with (peptide recovered from phage library selection on this NCI-60 cell line)” value is on record as “UO31 Renal”.

Consider YWQHRVS, for which the “Cell Line (NCI-60 cell line the peptide is associated with)” value is given as “HCT-116 Colon”.

On to YYAGGLK, for which the “Cell Line with which the peptide” value is given as “Hop-62-Lung”.

Turning to YYGERSS, the “Cell Line (NCI-60 cell line the peptide and its motif are associated with)” value was “OVCAR-5 Ovarian”.

Source of the values: patent US7781565B2 (priority 2006, dated 2010).
